Experimental data as given in patent publication US7491819B1 (priority 2004, dated 2009).
Like-named read-outs stand apart in the source and are kept apart here.

Key:
HIV-integrase = target: T1, HIV-integrase (Human immunodeficiency virus type 1 group M subtype B, UniProt P12497); experiment: HIV-Integrase Inhibition Activity (SPA bead strand-transfer assay); assay type: biochemical
T1 construct: Recombinant integrase (0.26 ng) was incubated with the beads
Procedure, shortened: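 Strand-transfer read-out: CPM from P33-labelled target DNA (0.1 fmol) joined to bead-bound biotin substrate DNA (5 pmole), with EDTA stop at 10 mM final. Integrase (0.26 ng) prebound to streptavidin SPA beads 90 min, 37° C, and washed before adding inhibitor.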

HIV-1 303B = experiment: microbe, parasite or virus in culture; assay type: cell-based; settings: for EC50: Human immunodeficiency virus 1, MT2, 120 h; for overall antiviral effect of the two-drug combination with Example 19 (in words): classification from combination indices and confidence intervals; for Combination Indices at 50% HIV Inhibition (Confidence Interval) / Combination Indices at 75% HIV Inhibition (Confidence Interval) / Combination Indices at 90% HIV Inhibition (Confidence Interval): in combination with Example 19, 95% CI in parenthesis
Protocol: Virus and cell lines. The T-cell line, MT-2, was obtained through the AIDS Research and Reference Reagent Program. MT-2 cells were sub-cultured twice a week in RPMI 1640 medium supplemented with 10% fetal bovine serum, 2 mM L-glutamine, and 10 mM HEPES buffer pH 7.5. The HIV-1303B virus is a molecular clone derived from the NL4-3 strain of HIV-1 that was obtained from the NIH AIDS Research and Reference Reagent Program. For combinations with enfuvirtide, the NL36G virus was used. […] Virus stocks were made by transfecting 293T cells with a proviral DNA clone using LipofectAMINE PLUS (Invitrogen), according to the manufacturer's instructions. Three days post-transfection, virus was harvested and passaged once in MT-2 cells before titration in MT-2 cells.
Chemicals. Example 19, atazanavir, didanosine, stavudine, efavirenz, and enfuvirtide (T-20) were synthesized by Bristol-Myers Squibb using published or known reactions. […] Tenofovir was tested as tenofovir disopoxil fumarate. Zidovudine and zalcitabine were purchased from Sigma, and emtricitabine from Moravek Biochemicals.
Drug Susceptibility and Cytotoxicity Assays. For drug susceptibility assays, MT-2 cells were infected with HIV-1 303B (or NL36G), at an MOI of 0.001, and seeded into 96-well microtiter plates (2.5×10^5 cells/ml) containing serial dilutions of test compounds. […] Each drug ratio consisted of an array of 3-fold serial dilutions, and was performed with eight or more replicas on separate multi-well plates. HIV infected cells were incubated at 37° C. in 5% CO2, and on day five post-infection, the extent of virus replication was measured by determining cell viability using the CellTiter 96 Aqueous Non-Radioactive Cell Proliferation Assay (Promega). […] Cytotoxicity assays were performed in parallel with the combination experiments. Here, uninfected cells were exposed to the same drug combinations, and assayed after five days for cell viability using the MTS assay.
Analysis of Drug Combination Effects. For determination of combination index (CI) values, drugs were diluted in a fixed ratio and multiple ratios were analyzed. The drug serial dilutions spanned a range of concentrations near the EC50 value of each compound, so that equivalent antiviral activities could be compared. The normalized responses from each therapy are fit to the four-parameter logistic model with a common minimum and maximum across all therapies. Conceptually, this equation can be written as
In this equation, Fa stands for “fraction affected,” and represents the fraction of the viral load that has been inactivated. […] The EC50, represented by the Ci in the above equation, is the drug concentration that is expected to reduce the amount of virus by 50%, and the Bi are the parameters that reflects the slope of the concentration-response curve. For this assay, A is the bottom plateau common to all curves, D is the common top plateau, Bj is the “slope” parameter for the jth therapy, and Cj is the concentration that produces an effect equal to the average of A and D for the jth therapy. Therapies 1 and 2 correspond to mono therapies 1 and 2, respectively. Therapies 3, 4, and 5 correspond to the three combination therapies. EC50 values for each drug were determined from the single drug experiments, using the above equation. The equation was fit using a nonlinear regression routine (Proc Nlin) in PC SAS version 8.2 (SAS Institute Inc.).
To assess antiviral effects of different drug combination treatments, combination indices (CIs) were calculated according to Chou and Rideout. The combination index was computed as
In this equation [Dm]1 and [Dm]2 are the concentrations of drugs that would individually produce a specific level of effect, while [D]1 and [D]2 are the concentrations of drugs in combination that would produce the same level of effect.
Theoretically, additivity is implied if the CI is equal to one, synergy if the CI is less than one, and antagonism if the CI is greater than one.

NL-Rluc virus = experiment: Inhibition of HIV replication (recombinant NL-Rluc virus, luciferase); assay type: cell-based
[1] = Human immunodeficiency virus 1, Table 2, serum condition not stated (10% FBS, 15 mg/ml human serum albumin/10% FBS or 40% human serum/5% FBS), at least 2 experiments, read-out: Activity (inhibition of HIV replication, EC50 class)
[2] = Human immunodeficiency virus 1, read-out: Inhibition of HIV replication
[3] = Table 2a, read-out: HIV-Integrase Inhibition Activity
[4] = EC50 ratio Example 19:comparator 1:1
[5] = EC50 ratio Example 19:comparator 1:2.5
[6] = EC50 ratio Example 19:comparator 2.5:1

| Compound | EC50 (NL-Rluc virus; [2]) | IC50 (HIV-integrase; [3]) | other results |
| --- | --- | --- | --- |
| CC1(C)OCCn2c1nc(C(=O)NCc1ccc(F)cc1)c(O)c2=O [Example 19, Pyrimido[2,1-c][1,4]oxazine-2-carboxamide, N-[(4-fluorophenyl)methyl]-4,6,7,9-tetrahydro-3-hydroxy-9,9-dimethyl-4-oxo-] |  |  | IC50 (HIV-integrase; Table 1, read-out: Activity (HIV-integrase inhibition, IC50 class)): 2 to 100 nM; EC50 (HIV-1 303B): 22 nM; overall antiviral effect of the two-drug combination with Example 19 (in words) (HIV-1 303B): synergistic or additive-synergistic |
| CN(C)C(=O)Oc1cc(F)ccc1CNC(=O)c1nc2n(c(=O)c1O)CCOC2(C)C [Example 96, Carbamic acid, dimethyl-, 5-fluoro-2-[[[(4,6,7,9-tetrahydro-3-hydroxy-9,9-dimethyl-4-oxopyrimido[2,1-c][1,4]oxazin-2-yl)carbonyl]amino]methyl]phenyl ester] |  |  | IC50 (HIV-integrase): 2 to 100 nM; EC50 (NL-Rluc virus; [1]): 3 to 100 nM |
| CC1(C)OCCn2c1nc(C(=O)NCc1ccc(F)cc1OC(=O)N1CCOCC1)c(O)c2=O [Example 99, 4-Morpholinecarboxylic acid, 5-fluoro-2-[[[(4,6,7,9-tetrahydro-3-hydroxy-9,9-dimethyl-4-oxopyrimido[2,1-c][1,4]oxazin-2-yl)carbonyl]amino]methyl]phenyl ester] |  |  | IC50 (HIV-integrase): 2 to 100 nM; EC50 (NL-Rluc virus; [1]): 3 to 100 nM |
| CC1(C)OCCn2c1nc(C(=O)NCc1cccc(C3(C(F)(F)F)NN3)c1)c(O)c2=O [Example 104, Pyrimido[2,1-c][1,4]oxazine-2-carboxamide, 4,6,7,9-tetrahydro-3-hydroxy-9,9-dimethyl-4-oxo-N-[[3-[3-(trifluoromethyl)-3-diaziridinyl]-phenyl]-methyl]-] |  |  | IC50 (HIV-integrase): 100 to 1000 nM; EC50 (NL-Rluc virus; [1]): 100 to 1000 nM |
| CCC1OCCn2c1nc(C(=O)NCc1ccc(F)cc1-n1ncnc1C)c(O)c2=O (centres unmarked) [Example 285, Pyrimido[2,1-c][1,4]oxazine-2-carboxamide, 9-ethyl-N-[[4-fluoro-2-(5-methyl-1H-1,2,4-triazol-1-yl)phenyl]methyl]-4,6,7,9-tetrahydro-3-hydroxy-4-oxo-] | 3 to 100 nM |  |  |
| CC1(C)OCCn2c1nc(C(=O)NCc1ccc(F)cc1P(=O)(O)O)c(O)c2=O [Example 289, Phosphonic acid, [5-fluoro-2-[[[(4,6,7,9-tetrahydro-3-hydroxy-9,9-dimethyl-4-oxopyrimido[2,1-c][1,4]oxazin-2-yl)carbonyl]amino]methyl]phenyl]-] | > 1000 nM | 2 to 100 nM |  |
| COP(=O)(O)c1cc(F)ccc1CNC(=O)c1nc2n(c(=O)c1O)CCOC2(C)C [Example 290, Phosphonic acid, [5-fluoro-2-[[[(4,6,7,9-tetrahydro-3-hydroxy-9,9-dimethyl-4-oxopyrimido[2,1-c][1,4]oxazin-2-yl)carbonyl]amino]methyl]phenyl]-, monomethyl ester] | 100 to 1000 nM | 2 to 100 nM |  |
| CC1(C)OCCn2c1nc(C(=O)NCc1ccc(F)cc1P1(=O)OCCO1)c(O)c2=O [Example 291, Pyrimido[2,1-c][1,4]oxazine-2-carboxamide, N-[[4-fluoro-2-(2-oxido-1,3,2-dioxaphospholan-2-yl)phenyl]methyl]-4,6,7,9-tetrahydro-3-hydroxy-9,9-dimethyl-4-oxo-] | > 1000 nM | 2 to 100 nM |  |
| CC1(C)OCCn2c1nc(C(=O)NCc1ccc(F)cc1P(=O)(O)OCCO)c(O)c2=O [Example 292, Phosphonic acid, [5-fluoro-2-[[[(4,6,7,9-tetrahydro-3-hydroxy-9,9-dimethyl-4-oxopyrimido[2,1-c][1,4]oxazin-2-yl)carbonyl]amino]methyl]phenyl]-, mono(2-hydroxyethyl) ester] | > 1000 nM | 2 to 100 nM |  |
| CC1(C)OCCn2c1nc(C(=O)NCc1ccc(F)cc1P(=O)(OCCO)OCCO)c(O)c2=O [Example 293, Phosphonic acid, [5-fluoro-2-[[[(4,6,7,9-tetrahydro-3-hydroxy-9,9-dimethyl-4-oxopyrimido[2,1-c][1,4]oxazin-2-yl)carbonyl]amino]methyl]phenyl]-, bis(2-hydroxyethyl) ester] | 100 to 1000 nM | 2 to 100 nM |  |
| CC1(C)COP(=O)(c2cc(F)ccc2CNC(=O)c2nc3n(c(=O)c2O)CCOC3(C)C)OC1 [Example 294, Pyrimido[2,1-c][1,4]oxazine-2-carboxamide, N-[[2-(5,5-dimethyl-2-oxido-1,3,2-dioxaphosphorinan-2-yl)-4-fluorophenyl]methyl]-4,6,7,9-tetrahydro-3-hydroxy-9,9-dimethyl-4-oxo-] | 3 to 100 nM | 2 to 100 nM |  |
| CC1(C)OCCn2c1nc(C(=O)NCc1ccc(F)cc1-n1ccnn1)c(O)c2=O [Example 295, Pyrimido[2,1-c][1,4]oxazine-2-carboxamide, N-[[4-fluoro-2-(1H-1,2,3-triazol-1-yl)phenyl]methyl]-4,6,7,9-tetrahydro-3-hydroxy-9,9-dimethyl-4-oxo-] | 3 to 100 nM | 2 to 100 nM |  |
| Cc1cnnn1-c1cc(F)ccc1CNC(=O)c1nc2n(c(=O)c1O)CCOC2(C)C [Example 296, Pyrimido[2,1-c][1,4]oxazine-2-carboxamide, N-[[4-fluoro-2-(5-methyl-1H-1,2,3-triazol-1-yl)phenyl]methyl]-4,6,7,9-tetrahydro-3-hydroxy-9,9-dim ethyl-4-oxo-] | 3 to 100 nM | 2 to 100 nM |  |
| CC(C)(C)c1cn(-c2cc(F)ccc2CNC(=O)c2nc3n(c(=O)c2O)CCOC3(C)C)nn1 [Example 297, Pyrimido[2,1-c][1,4]oxazine-2-carboxamide, N-[[2-[4-(1,1-dimethylethyl)-1H-1,2,3-triazol-1-yl]-4-fluorophenyl]methyl]-4,6,7,9-tetrahydro-3-hydroxy-9,9-dimethyl-4-oxo-] | 3 to 100 nM | 2 to 100 nM |  |
| Cc1nnn(-c2cc(F)ccc2CNC(=O)c2nc3n(c(=O)c2O)CCOC3(C)C)c1C [Example 298, Pyrimido[2,1-c][1,4]oxazine-2-carboxamide, N-[[2-(4,5-dimethyl-1H-1,2,3-triazol-1-yl)-4-fluorophenyl]methyl]-4,6,7,9-tetrahydro-3-hydroxy-9,9-dimethyl-4-oxo-] | 3 to 100 nM | 2 to 100 nM |  |
| Cc1cn([C@H]2C[C@H](N=[N+]=[N-])[C@@H](CO)O2)c(=O)[nH]c1=O [Zidovudine] |  |  | EC50 (HIV-1 303B): 12 nM; overall antiviral effect of the two-drug combination with Example 19 (in words) (HIV-1 303B): synergistic to additive; Combination Indices at 50% HIV Inhibition (Confidence Interval) (HIV-1 303B; [4]): 0.59 (0.49, 0.69); Combination Indices at 75% HIV Inhibition (Confidence Interval) (HIV-1 303B; [4]): 0.56 (0.41, 0.70); Combination Indices at 90% HIV Inhibition (Confidence Interval) (HIV-1 303B; [4]): 0.54 (0.36, 0.70); Combination Indices at 50% HIV Inhibition (Confidence Interval) (HIV-1 303B; [5]): 0.65 (0.56, 0.75); Combination Indices at 75% HIV Inhibition (Confidence Interval) (HIV-1 303B; [5]): 0.73 (0.59, 0.86); Combination Indices at 90% HIV Inhibition (Confidence Interval) (HIV-1 303B; [5]): 0.81 (0.57, 1.06); Combination Indices at 50% HIV Inhibition (Confidence Interval) (HIV-1 303B; [6]): 0.72 (0.61, 0.83); Combination Indices at 75% HIV Inhibition (Confidence Interval) (HIV-1 303B; [6]): 0.83 (0.64, 1.02); Combination Indices at 90% HIV Inhibition (Confidence Interval) (HIV-1 303B; [6]): 0.96 (0.63, 1.30) |
